In US20230399327A1, “HIGH ACTIVITY HPK1 KINASE INHIBITOR” (ADLAI NORTYE BIOPHARMA CO., LTD., priority 2020, published 2023):

Target: HPK1 kinase (Homo sapiens (Human), UniProt Q92918)
Assay: HPK1 kinase activity inhibition (ADP-Glo Kinase Assay)
Assay type: biochemical
Conditions: HPK1, MBP substrate, ATP, 25° C. 60 min
Method: Test Example 1: Detection of Compound's Ability to Inhibit HPK1 Kinase Activity (Method 1)
The specific operation is as follows: configure the enzymatic reaction system buffer (10 mM MOPS, pH 7.2, 5 mM β-glycerol-phosphate, 10 mM MgCl2, 0.8 mM EDTA, 2 mM EGTA, 0.1 mM DTT); the test compound (1 mM the compound stock solution in DMSO) was diluted with buffer to the highest concentration of 60 uM (containing 6% DMSO), and the compound with a concentration of 60 μM was initially diluted 5 times with a buffer containing 6% DMSO for a total of 8 points of gradient concentration; then dilute HPK1 kinase to 30 nM in buffer. Add 2 μl of HPK1 kinase diluent to each well of a Greiner 384-well microplate (Cat. No. 784075), and add 2 μl of buffer to the control well; add 1 μl of the diluted compound to the reaction well after brief centrifugation, and add 1 μl buffer solution containing 6% DMSO to the control well; after short centrifugation, place in a 25° C. constant temperature incubator (Shanghai Yiheng Scientific Instrument Co., Ltd., Cat. No.: LRH-150) and incubate for 20 minutes. Add 3 μl of reaction substrate (10 μM MBP and 20 μM ATP dissolved in distilled water) to each well, briefly centrifuge and incubate in a constant temperature incubator at 25° C. for 60 min, and use ADP-Glo Kinase Assay Kit to detect the enzymatic reaction activity, ADP-Glo Kinase Assay Kit detection is carried out according to the operating instructions of the kit. Data are described using the half maximal inhibitory concentration IC50 of the compound.

Chain of HPK1 kinase (Q92918 whole entry): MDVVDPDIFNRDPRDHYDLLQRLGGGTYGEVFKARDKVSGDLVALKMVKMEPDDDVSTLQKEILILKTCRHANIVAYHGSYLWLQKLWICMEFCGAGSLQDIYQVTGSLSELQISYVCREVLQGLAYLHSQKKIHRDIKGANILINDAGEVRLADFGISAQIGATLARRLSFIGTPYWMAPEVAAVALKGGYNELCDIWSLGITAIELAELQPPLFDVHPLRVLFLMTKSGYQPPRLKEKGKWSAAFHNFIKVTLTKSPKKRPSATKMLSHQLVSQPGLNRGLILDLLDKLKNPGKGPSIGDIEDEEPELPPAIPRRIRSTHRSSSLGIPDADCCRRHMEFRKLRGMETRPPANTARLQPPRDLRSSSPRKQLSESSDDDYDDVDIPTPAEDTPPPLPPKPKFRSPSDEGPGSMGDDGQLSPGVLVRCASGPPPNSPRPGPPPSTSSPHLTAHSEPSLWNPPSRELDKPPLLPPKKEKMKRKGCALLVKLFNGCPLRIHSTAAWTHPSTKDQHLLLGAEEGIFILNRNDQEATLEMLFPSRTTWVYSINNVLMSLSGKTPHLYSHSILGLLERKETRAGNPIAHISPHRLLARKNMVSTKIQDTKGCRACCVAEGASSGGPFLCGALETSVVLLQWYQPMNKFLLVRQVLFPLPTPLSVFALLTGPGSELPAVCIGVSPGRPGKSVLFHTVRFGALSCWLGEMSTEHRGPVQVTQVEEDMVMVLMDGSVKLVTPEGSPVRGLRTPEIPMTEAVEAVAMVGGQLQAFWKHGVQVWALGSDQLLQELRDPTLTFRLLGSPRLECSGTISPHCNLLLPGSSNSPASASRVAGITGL

Q: How did the IC50 turn out when `CCOc1nc2c(cc1Nc1ncc3ccnc(N[C@@H](CO)C(C)(C)C)c3n1)CN(C)CC2` [Example 57, (R)-2-((2-((2-ethoxy-6-methyl-5,6,7,8-tetrahydro-1,6-naphthyridin-3-yl)amino)pyrido[3,4-d]pyrimidin-8-yl)amino)-3,3-dimethylbutan-1-ol] was run?
A: The IC50 was 0.25 nM.

Q: How did the IC50 turn out when `CCOc1nc2c(cc1Nc1ncc3ccnc(N[C@H](C)C(C)(C)C)c3n1)CN(C)CC2` [Example 58, (R)—N8-(3,3-dimethylbut-2-yl)-N2-(2-ethoxy-6-methyl-5,6,7,8-tetrahydro-1,6-Naphthyridin-3-yl)pyrido[3,4-d]pyrimidine-2,8-diamine] was run?
A: The IC50 was less than 0.1 nM.

Q: `COc1nc2c(cc1Nc1ncc3cccc(Cc4ccccc4)c3n1)CN(C)CC2` [Example 59, 8-benzyl-N-(2-methoxy-6-methyl-5,6,7,8-tetrahydro-1,6-naphthyridin-3-yl)quinazolin-2-amine] was tested. Which IC50 did it give?
A: The IC50 was less than 0.1 nM.

Q: How did the IC50 turn out when `Cc1c(-c2cccc3cnc(Nc4cc5c([nH]c4=O)CCN(C)C5)nc23)cnn1C` [Example 61, 3-((8-(1,5-dimethyl-1H-pyrazol-4-yl)quinazolin-2-yl)amino)-6-methyl-5,6,7,8-tetrahydro-1,6-naphthyridin-2(1H)-one] was run?
A: The IC50 was less than 0.1 nM.

Q: How did the IC50 turn out when `COc1ccccc1-c1nccc2cnc(Nc3cc4c([nH]c3=O)CCN(C)C4)nc12` [Example 62, 3-((8-(2-methoxyphenyl)pyrido[3,4-d]pyrimidin-2-yl)amino)-6-methyl-5,6,7,8-tetrahydro-1,6-naphthyridin-2(1H)-one] was run?
A: Its IC50 is 23.1 nM.

Q: With `CN1CCc2[nH]c(=O)c(Nc3ncc4ccnc(N5CCCCC5)c4n3)cc2C1` [Example 63, 6-methyl-3-((8-(piperidin-1-yl)pyrido[3,4-d]pyrimidin-2-yl)amino)-5,6,7,8-tetrahydro-1,6-naphthyridin-2(1H)-one] as the molecule, how does the IC50 read?
A: The IC50 was 31.3 nM.

Q: With `CN1CCc2[nH]c(=O)c(Nc3ncc4ccnc(NCC(C)(C)C)c4n3)cc2C1` [Example 64, 6-methyl-3-((8-(neopentylamino)pyrido[3,4-d]pyrimidin-2-yl)amino)-5,6,7,8-tetrahydro-1,6-naphthyridin-2(1H)-one] as the molecule, how does the IC50 read?
A: Its IC50 is less than 0.1 nM.

Q: How did the IC50 turn out when `CCOc1nc2c(cc1Nc1ncc3ccnc(N4CC(C)(C)C4)c3n1)CN(C)CC2` [Example 65, 8-(3,3-dimethylazetidin-1-yl)-N-(2-ethoxy-6-methyl-5,6,7,8-tetrahydro-1,6-Naphthyridin-3-yl)pyrido[3,4-d]pyrimidin-2-amine] was run?
A: The IC50 was 20.1 nM.

Q: With `CCOc1nc2c(cc1Nc1ncc3cccc(-c4c(C)nn(C)c4C)c3n1)CN(C)CC2` [Example 67, N-(2-ethoxy-6-methyl-5,6,7,8-tetrahydro-1,6-naphthyridin-3-yl)-8-(1,3,5-trimethyl-1H-pyrazol-4-yl)quinazolin-2-amine] as the molecule, how does the IC50 read?
A: The IC50 was 23.3 nM.

Q: How did the IC50 turn out when `CN1CCc2c(cc(Nc3ncc4ccnc(N5CCCCC5)c4n3)c(=O)n2C)C1` [Example 68, 1,6-dimethyl-3-((8-(piperidin-1-yl)pyrido[3,4-d]pyrimidin-2-yl)amino)-5,6,7,8-tetrahydro-1,6-naphthyridin-2(1H)-one] was run?
A: The IC50 was 1.47 nM.

Q: `CN1CCc2c(cc(Nc3ncc4ccnc(N5CCOCC5)c4n3)c(=O)n2C)C1` [Example 69, 1,6-dimethyl-3-((8-morpholinopyrido[3,4-d]pyrimidin-2-yl)amino)-5,6,7,8-tetrahydro-1,6-naphthyridin-2(1H)-one] was tested. Which IC50 did it give?
A: Its IC50 is 2.19 nM.

Q: With `CN1CCc2[nH]c(=O)c(Nc3ncc4ccnc(N5CCC(F)(F)CC5)c4n3)cc2C1` [Example 74, 3-((8-(4,4-difluoropiperidin-1-yl)pyrido[3,4-d]pyrimidin-2-yl)amino)-6-methyl-5,6,7,8-tetrahydro-1,6-naphthyridin-2(1H)-one] as the molecule, how does the IC50 read?
A: The IC50 was 15.8 nM.

Q: How did the IC50 turn out when `CN1CCc2[nH]c(=O)c(Nc3ncc4ccnc(C5=CCCCC5)c4n3)cc2C1` [Example 75, 3-((8-(cyclohex-1-en-1-yl)pyrido[3,4-d]pyrimidin-2-yl)amino)-6-methyl-5,6,7,8-tetra hydro-1,6-naphthyridin-2(1H)-one] was run?
A: Its IC50 is less than 0.1 nM.

Q: How did the IC50 turn out when `CN1CCc2c(cc(Nc3ncc4ccnc(N5CCCCCC5)c4n3)c(=O)n2C)C1` [Example 80, 3-((8-(azepan-1-yl)pyrido[3,4-d]pyrimidin-2-yl)amino)-1,6-dimethyl-5,6,7,8-tetrahydro-1,6-naphthyridin-2(1H)-one] was run?
A: Its IC50 is 0.61 nM.

Q: How did the IC50 turn out when `CN1CCc2c(cc(Nc3ncc4ccnc(C5=CCCCC5)c4n3)c(=O)n2C)C1` [Example 81, 3-((8-(cyclohex-1-en-1-yl)pyrido[3,4-d]pyrimidin-2-yl)amino)-1,6-dimethyl-5,6,7,8-tetrahydro-1,6-naphthyridin-2(1H)-one] was run?
A: Its IC50 is 0.23 nM.

Q: Which IC50 does the source give for `Cn1c2c(cc(Nc3ncc4ccnc(N5CCC(F)(F)CC5)c4n3)c1=O)CN(CCO)CC2` [Example 82, 3-((8-(4,4-difluoropiperidin-1-yl)pyrido[3,4-d]pyrimidin-2-yl)amino)-6-(2-hydroxyethyl)-1-methyl-5,6,7,8-tetrahydro-1,6-naphthyridin-2(1H)-one] here?
A: The IC50 was less than 0.1 nM.

Q: Which IC50 does the source give for `Cn1c2c(cc(Nc3ncc4ccnc(N5CCCCC5)c4n3)c1=O)CN(CCO)CC2` [Example 83, 6-(2-hydroxyethyl)-1-methyl-3-((8-(piperidin-1-yl)pyrido[3,4-d]pyrimidin-2-yl)amino)-5,6,7,8-tetrahydro-1,6-naphthyridin-2(1H)-one] here?
A: The IC50 was 0.16 nM.

Q: How did the IC50 turn out when `Cn1c2c(cc(Nc3ncc4ccnc(N5CCSCC5)c4n3)c1=O)CN(CCO)CC2` [Example 84, 6-(2-hydroxyethyl)-1-methyl-3-((8-thiomorpholinopyrido[3,4-d]pyrimidin-2-yl)amino)-5,6,7,8-tetrahydro-1,6-naphthyridin-2(1H)-one] was run?
A: The IC50 was 0.43 nM.

Q: With `CN1CCc2c(cc(Nc3ncc4ccnc(N5CC6CC6C5)c4n3)c(=O)n2C)C1` (centres unmarked) [Example 86, 3-((8-(3-azabicyclo[3.1.0]hex-3-yl)pyrido[3,4-d]pyrimidin-2-yl)amino)-1,6-dimethyl-5,6,7,8-tetrahydro-1,6-naphthyridin-2(1H)-one] as the molecule, how does the IC50 read?
A: Its IC50 is 56.3 nM.

Q: For `COCCn1c2c(cc(Nc3ncc4ccnc(N5CCC(F)(F)CC5)c4n3)c1=O)CN(C)CC2` [Example 87, 3-((8-(4,4-difluoropiperidin-1-yl)pyrido[3,4-d]pyrimidin-2-yl)amino)-1-(2-methoxyethyl)-6-methyl-5,6,7,8-tetrahydro-1,6-naphthyridin-2(1H)-one], which IC50 is on record?
A: Its IC50 is 19.9 nM.
